A short description of data set [1]: Apelinergic stability in sheep plasma. Format: in vitro ADME. As to conditions: sheep plasma of baseline and shock time points (n = 18); 27 μL plasma + 6 μL 1 mM aqueous peptide, 37 °C, 0 to 6 h, UPLC-MS. The method, then:
(§1) Additional extraction on […] column (Phenomenex, Torrance, CA, USA) with overnight freeze-drying was mandatory for samples used for ELA measurements. […] LS-F25717; […] ELA was quantified using a commercially available ELISA kit (Peninsula Laboratories International; S-1508; CA, USA) with a measurement range of 0-100 ng/mL. […] Proteolytic degradation was stopped by adding 140 μL of 50% acetonitrile, 50% ethanol, and 0.25 mM N, N-dimethylbenzamide at 0, 0.5, 1, 2, 4, or 6 h. […] Next, the reaction mixture was diluted with 80 μL of water and analyzed overnight with an Acquity class H ultra-performance liquid chromatography-mass spectrometry (UPLC-MS) system from Waters (Milford, MA, USA) (column: Acquity UPLC CSH C18, 2.1 mm × 50 mm, packed with 1.7 μm particles). Results were expressed as a percentage of the initial zero-time spike area.

The test system of data set [2] is sheep APJ. The experiment in a line: BRET assay for β-arrestin-2 recruitment in HEK293 cells expressing sheep APJ. Format: cell-based, sheep (Ovis aries). As to conditions: BRET2, HEK293 cells with sheep APJ, 30 min stimulation at 37 °C, n = 3. The procedure: (§2) BRET experiments were performed as previously described. In brief, HEK293 cells were transfected with plasmids encoding sheep APJ, Gαi1-RlucII ([…]β1 (from cDNA.org) (for the BRET-based Gαi1 activation assay) or encoding sheep APJ-GFP10 and RlucII-β-arrestin2 (for the BRET-based β-arrestin-2 recruitment assay)[50]. To perform the BRET assays, 50,000 cells/well were transferred into white 96-well plates (BD Bioscience, Mississauga, Canada) and incubated at 37 °C overnight. […] After stimulation, 5 μM coelenterazine 400A was added to each well, and the plate was read on a GeniosPro plate reader using the BRET2 filter set (Tecan, Austria). The BRET2 ratio was calculated as […].
A general note: In BRET a luciferase serves as donor, and the signal depends on an acceptor being close.

Data set [3] concerns sheep APJ. The experiment in a line: BRET assay for Gαi1 activation in HEK293 cells expressing sheep APJ. The data set is classed as cell-based, sheep (Ovis aries). As to conditions: BRET2, HEK293 cells with sheep APJ, 5 min stimulation at 37 °C, n = 3. The procedure: as §2
Data set [4] in a line: Apelinergic stability in human plasma. The data set is classed as in vitro ADME. As to conditions: 27 μL plasma + 6 μL 1 mM aqueous peptide, 37 °C, 0, 0.5, 1, 2, 4, 6 h, UPLC-MS, mean ± SEM. The procedure: as §1
Data set [5] has as its system sheep APJ. The experiment in a line: Competitive radioligand binding with [125I]-(pyr1)Apelin-13 on HEK293 cells expressing sheep APJ. More on the design: species or system sheep (Ovis aries). To be noted: HEK293 cells with HA-tagged sheep APJ, 0.2 nM [125I]-(pyr1)APLN-13, 1 h at room temperature, n = 3; human APLN-13 compared with human ELA. The source says:
The sequence of the apelin receptor was synthetized with gBlocks Gene Fragments (Integrated DNA Technologies, USA) and subcloned into […]1 (a modified vector in which we replaced the YFP sequence with that for two HA tags) with an NEBuilder HiFi DNA Assembly Cloning Kit (New England Biolabs, MA, USA). The Ovis aries APJ sequence was obtained from the RefSeq database (XM_027979777.1). […] Thermo Scientific Pierce, Canada)[49]. […] The γ emission was quantified using a γ-counter 1470 Wizard from PerkinElmer (Waltham) (80% efficiency). […] All binding data were calculated and plotted using GraphPad Prism 8 (La Jolla, CA) and represent the mean ± SEM of three replicates.

Data set [6] has as its system sheep with fecal peritonitis-induced septic shock. The experiment in a line: Hemodynamic and renal dose-response to infusion in sheep with fecal peritonitis-induced septic shock. Format: in vivo. The procedure:
The day before surgery, autologous stool was retrieved for treatment of the sheep selected for fecal peritonitis induction and mixed overnight in 0.9% normal saline (NS) and 5% D-glucose at 37 °C. The animals were fasted overnight. On the morning of the day of surgery, sheep received premedication to ease animal handling and intubation (i.e., intramuscular injections of 0.1 mg/kg atropine and 10 mg/kg ketamine) before routing to the operating room for insertion of an external jugular vein catheter and administration of a 500 mL bolus of Ringer’s lactate (RL). Sheep were then continuously infused with RL (3 mL/kg/h) and 5% D-glucose (2 mL/kg/h). Tracheal intubation (7–8 Fr) was performed in a caddy under isoflurane (1–2%) mask inhalation and by an anterior approach. Sheep were then placed in the supine position on heating pads before ventilator connection (Aestiva 15, Datex-Ohmeda, USA). […]
(§3) Baseline hemodynamic parameters and vital sign measurements (HR: heart rate, MAP: mean arterial pressure, SVR: systemic vascular resistance, CVP: central venous pressure, PAOP: pulmonary artery occlusion pressure and wedge pressure), dP/dt max and min, LV end-systolic pressure (LVESP), CO, stroke volume (SV), GEDV, and extravascular lung water (EVLW) were then recorded. Blood temperature, baseline central venous O2 saturation (ScvO2), and arterial blood gas (RapidLab® 348, Siemens Healthcare Diagnostics, Montreal, Qc, Canada) and lactate levels (Lactate Plus, Nova Biomedical, Waltham, MA, USA) were also monitored. A slightly modified sheep SOFA[46] score was calculated after reached shock criteria defining the “shock” time point and before euthanasia named the “final” time points, defined as a MAP below 65 mmHg for level 1 of the cardiovascular system assessment and assuming a constant level 3 of the central nervous system (Glasgow score 6–9) at “shock”. […]
After 2 g/kg autologous stool slurry was injected into both intra-peritoneal (i.p.) tubes, RL and 5% D-glucose infusions were stopped, and all the above parameters were monitored every 30 min. […]

For data set [7], the system named is healthy sheep. The experiment in a line: Hemodynamic and diuretic dose-response to infusion in healthy sheep. Format: in vivo. The method, then:
This study was approved by our institutional ethics review board (CFPA: Comité Facultaire de Protection des Animaux, #023-18BR). Thirty-six male Canadian Arcott sheep (33 ± 3 kg, 3 to 4 months old;) were included in this study according to the Animal Research: Reporting of In Vivo Experiments (ARRIVE) guidelines and received care in compliance with the Canadian Council of Animal Care and National Institutes of Health (NIH) guidelines. Animals were housed for at least 48 h before the experiment in dedicated accommodations and bedding.
The day before surgery, autologous stool was retrieved for treatment of the sheep selected for fecal peritonitis induction and mixed overnight in 0.9% normal saline (NS) and 5% D-glucose at 37 °C. The animals were fasted overnight. On the morning of the day of surgery, sheep received premedication to ease animal handling and intubation (i.e., intramuscular injections of 0.1 mg/kg atropine and 10 mg/kg ketamine) before routing to the operating room for insertion of an external jugular vein catheter and administration of a 500 mL bolus of Ringer’s lactate (RL). […]
as §3

Regarding `CSCC[C@H](NC(=O)[C@@H](NC(=O)[C@H](CC(C)C)NC(=O)[C@H](CC(N)=O)NC(=O)[C@@H](NC(=O)[C@@H]1CCCN1C(=O)[C@H](CCCNC(=N)N)NC(=O)[C@@H](N)CCC(N)=O)C(C)C)[C@@H](C)O)C(=O)N[C@@H](CCCNC(=N)N)C(=O)N[C@@H](CCCNC(=N)N)C(=O)N[C@@H](CCCCN)C(=O)N[C@@H](CC(C)C)C(=O)N[C@@H](CCCNC(=N)N)C(=O)N[C@@H](CCCCN)C(=O)N[C@@H](Cc1c[nH]cn1)C(=O)N[C@@H](CC(N)=O)C(=O)N[C@H]1CSSC[C@@H](C(=O)N[C@@H](CCSC)C(=O)N2CCC[C@H]2C(=O)N[C@@H](CC(C)C)C(=O)N[C@@H](Cc2c[nH]cn2)C(=O)N[C@@H](CO)C(=O)N[C@@H](CCCNC(=N)N)C(=O)N[C@H](C(=O)N2CCC[C@H]2C(=O)N[C@@H](Cc2ccccc2)C(=O)N2CCC[C@H]2C(=O)O)C(C)C)NC(=O)[C@H](CCCNC(=N)N)NC(=O)[C@H](CCCNC(=N)N)NC(=O)[C@H](CCC(N)=O)NC(=O)[C@H](CC(C)C)NC1=O` [ELA, Elabela], in data set [1], the “plasma stability (residual percentage of non-degraded peptide)” value is “unaffected”. Moreover, the “potency and efficacy in β-arrestin-2 recruitment, compared with APLN-13” value in data set [2] was “lower potency and efficacy”. In addition, the “potency in Gαi1 activation, compared with APLN-13” value in data set [3] was “lower potency”. Further, the half-life in data set [4] (plasma of patients with sepsis/septic shock (n = 22)) is 1.15 ± 0.2 h; in data set [4] (plasma, plasma of healthy volunteers (n = 10)) it was 4.3 ± 0.75 h. Also, the “affinity for sheep APJ” value in data set [5] is listed as “similar”. Besides, in data set [6] (septic sheep after fluid resuscitation, 2.5 nMol/kg/h, mean ± SEM, n = 6/group), the “cardiac output (CO)” value was 2.71 ± 0.41 L/min. Besides, the “endpoint circulating levels of lactate, cortisol and Tn T” value in data set [6] (septic sheep, at the end of the last d5 infusion, n = 6/group) is reported as “neither APLN-13 nor ELA infusion impacted”. The “FP-induced decreases of monitored hemodynamic parameters” value in data set [6] (septic sheep, incremental doses 0.025 to 12.5 nmol/kg/h) is “failed to alleviate these decreases”. Also, the “mean arterial pressure (MAP)” value in data set [7] (6.25 nMol/kg/h, mean ± SEM, n = 6/group) was 65.4 ± 8.1 mmHg. For the same compound, the systemic vascular resistance entry in data set [7] (incremental doses 0.025 to 12.5 nmol/kg/h) is “not significantly impacted”. In addition, in data set [7] (incremental doses 0.025 to 12.5 nmol/kg/h, PiCCO), the “heart rate (HR) and global end-diastolic volume (GEDV)” value was “unchanged”.

The term half-life denotes the time needed for the level to fall by half in the phase considered.

Source of the values: article PMC8611018, “Apelin-13 in septic shock: effective in supporting hemodynamics in sheep but compromised by enzymatic breakdown in patients” (Scientific Reports, 2021).
